In patent US11976062B2, “Benzisoxazole compound” (OSAKA UNIVERSITY, priority 2018, dated 2024):

Target: T1, TRPC6 channel (Homo sapiens, UniProt Q9Y210)
T1 construct: expressed in transfected cells; host or cells: HEK293
T1 sequence (Q9Y210 1-931): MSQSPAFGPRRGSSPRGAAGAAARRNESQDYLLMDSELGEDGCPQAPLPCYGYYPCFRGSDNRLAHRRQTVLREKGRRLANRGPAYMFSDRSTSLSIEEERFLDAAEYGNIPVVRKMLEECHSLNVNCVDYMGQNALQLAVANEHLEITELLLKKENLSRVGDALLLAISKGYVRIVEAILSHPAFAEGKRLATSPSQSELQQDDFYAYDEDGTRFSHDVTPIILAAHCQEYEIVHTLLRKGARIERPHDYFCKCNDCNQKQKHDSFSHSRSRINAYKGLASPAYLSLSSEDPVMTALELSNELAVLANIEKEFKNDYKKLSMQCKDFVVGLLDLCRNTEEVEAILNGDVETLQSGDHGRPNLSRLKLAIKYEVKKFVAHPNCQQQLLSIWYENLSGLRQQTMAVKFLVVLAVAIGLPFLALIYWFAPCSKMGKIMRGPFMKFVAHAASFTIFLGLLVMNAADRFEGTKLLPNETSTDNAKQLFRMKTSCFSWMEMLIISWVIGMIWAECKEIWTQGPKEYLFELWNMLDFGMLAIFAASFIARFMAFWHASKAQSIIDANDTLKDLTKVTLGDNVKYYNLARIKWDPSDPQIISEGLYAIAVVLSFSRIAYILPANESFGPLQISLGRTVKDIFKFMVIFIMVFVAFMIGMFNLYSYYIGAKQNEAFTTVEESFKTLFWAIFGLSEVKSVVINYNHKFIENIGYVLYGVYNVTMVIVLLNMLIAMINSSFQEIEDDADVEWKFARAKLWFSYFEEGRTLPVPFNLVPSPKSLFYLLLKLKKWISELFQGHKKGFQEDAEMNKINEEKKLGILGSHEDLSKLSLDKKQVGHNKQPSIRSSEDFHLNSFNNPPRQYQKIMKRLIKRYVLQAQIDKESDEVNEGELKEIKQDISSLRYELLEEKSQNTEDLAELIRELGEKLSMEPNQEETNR
Experiment: Calcium assay using HEK293 cells transiently expressing TRPC6 channel, carbachol activation (Fura-2)
Format: cell-based
Protocol: A TRPC6 gene was introduced into HEK293 cells (cells derived from human fetal kidney) by lipofection, and the TRPC6 channel was expressed on the cell membrane. Specifically, the plasmid DNA of TRPC6 (pCI-neo; Promega Corporation) was introduced into HEK293 cells using a lipofection reagent, and then cultured at 37° C. for 24 to 48 hours to express the TRPC6 channel on the cell membrane. In the same manner, HEK293 cells into which the TRPC3 gene was introduced were cultured, and the TRPC3 channel was expressed on the cell membrane.
The cultured cells were peeled off with trypsin and seeded on a cover glass again, followed by culturing the cells at 37° C. for 3 hours again. A Fura-2 AM calcium indicator was added to the medium, and the cells were cultured at 37° C. for 30 minutes to allow the cells to incorporate the indicator. For the extracellular solution, a Ca^2+-containing solution and a Ca^2+-free solution were prepared. • Ca^2+-containing solution: 2 mM CaCl2, 132 mM NaCl, 4 mM KCl, 1 mM MgCl2, 5 mM glucose, 5 mM HEPES (pH 7.4) • Ca^2+-free solution: 132 mM NaCl, 4 mM KCl, 1 mM MgCl2, 5 mM glucose, 5 mM HEPES (pH 7.4)
After the cells were added to the Ca^2+-containing solution, the following operation was performed while the fluorescence intensity (510 nm) of Fura-2 was measured at room temperature with an ARGUS CA-20 (Hamamatsu Photonics K.K.) over time. • 0 minutes: TRPC3-expressing cells or TRPC6-expressing cells are placed in a measurement chamber that contains the Ca^2+-containing solution. • After 30 seconds: The Ca^2+-containing solution is replaced with the Ca^2+-free solution. • After 1 minute: A predetermined amount of a test compound is added to the Ca^2+-free solution. • After 3 minutes: Carbachol (100 μM) is added to the Ca^2+-free solution. • After 7 minutes: The Ca^2+-free solution is replaced with the Ca^2+-containing solution that contains a test compound and carbachol […]. • After 15 minutes: Measurement is ended.
Compound 011 was used as the test compound, and the amount of the test compound added was 0.01, 0.1, 0.5, 1.0, 5.0, 10, or 50 μM. For the control, 0.1% DMSO was used in place of the test compound. Carbachol (cch) is a TRPC-channel-activating reagent. Applying carbachol to cells opens the TRPC channel and allows a large amount of Ca^2+ in the extracellular solution to flow into the cells. Fura-2 AM has high cell membrane permeability due to the presence of an AM group (acetoxymethyl group), and is thus easily incorporated into the cells. The AM group is hydrolyzed in the cells to become Fura-2. Thus, Fura-2 can form a chelate with Ca^2+ and is also unlikely to leak out of the cells due to the loss of the AM group.
In the same manner as in Test Example 1, the maximum calcium ion concentration was measured after 7 minutes from the start of measurement (i.e., after replacement with the Ca^2+-containing solution) by using TRPC6-expressing cells prepared in the same manner as in Test Example 1, except that 10 μM of Pyr 4 and 10 μM of compound 011, 031, 041, or 191 (test compound) were used. The average value of calcium ion concentrations up to 30 seconds after the start of measurement (the initial value of calcium ion concentration) was subtracted from the maximum calcium ion concentration, and the calculated value was determined to be the amount of increase in calcium ions. FIG. 3 illustrates the results.
The calcium ion concentration was measured in the same manner as in Test Example 2, except that 10 μM of compound 011, 361, 362(E), 362(Z), 371, 372(Z), 381, or 401 (test compound) was used, and Pyr 4 was not used, thereby determining the amount of increase in calcium ions. Table 2 illustrates the amount of increase in calcium ions for each test compound relative to the amount of increase in calcium ions in the control (DMSO) taken as 100%.

amount of increase in calcium ions relative to control (DMSO) taken as 100% (10 μM test compound, carbachol, TRPC6-expressing cells): 21%
Ca2+ concentration in the cells reached after addition of carbachol (TRPC6, FIG. 1, from about 100 nM, control (DMSO) about 280 nM): about 140 nM
IC50 (TRPC6-expressing HEK293 cells, carbachol 100 μM, from concentration-response curves, read-out: IC50 for inhibition of the TRPC6 channel): 4.6 µM
Compound: O=C(O)c1cnc(N2CCN(c3noc4cccc(C(F)(F)F)c34)CC2)c(Cl)c1 [Compound 011, 5-chloro-6-(4-(4-(trifluoromethyl)benzo[d]isoxazol-3-yl)piperazin-1-yl) nicotinic acid]
suppression of TRPC6 channel activation (decrease in calcium ion influx, FIG. 3) (10 μM test compound, carbachol): activation of the TRPC6 channel was suppressed
